Experimental findings from patent US12084422B2, “Phenyl-n-quinoline derivatives for treating a RNA virus infection” (ABIVAX, priority 2018, dated 2024) are described below.

For assay [1], the system named is Chikungunya Virus (CHIKV) strain LR2006-OPY1 with GFP modification (CHIK 5'LR). The assay is described as follows: Inhibition of Chikungunya virus (CHIKV) production in infected HEK293T cell line (GFP fluorescence). It counts as cell-based. To be noted: HEK-293T, infected HEK293T cells; for inhibition at 1 µM: compounds at 1 μM, MOI 0.1, 22 h, values above 100 lowered to 100, read-out: % CHIKV Inhibition Mean (n = 2); for IC50: second round of experiments. How it is done: The ability of the compounds to inhibit viral replication was assessed with an experiment in which infected cells were treated by compounds of formula (I) at 1 μM. As a positive control for inhibition of Chikungunya, Ribavirin was used. Toxicity of the compounds was assessed in parallel.
Human embryonic kidney cells 293T (HEK293T, CRL-11268) were maintained in Dulbecco's modified Eagle's Medium (DMEM, 31966-021, Thermo Fisher Scientific) supplemented with 10% of fetal bovine serum (FBS), penicillin and streptomycin. After removal of the medium, cells were washed with a Ca^2+- and Mg^2+-free salt solution to remove all traces of serum. After aspiration of wash solution, cells were dissociated with 0.25% Trypsin-EDTA solution and incubated 30 s at least in 37° ° C. incubator. Concentration of cell suspension was determined by an automatic cell counter (EVE, NanoEntek) and, if needed, adjusted to 0.33×10^6 cells/mL with DMEM medium supplemented with 10% FBS.
100 μL of the cell suspension were dispatched in a ViewPlate-96 Black (6005182, PerkinElmer) and in a transparent 96-well cell culture plate (655180, Greiner bio-one). After an incubation for 24 h at 37° C. under 5% of CO2, compounds were added at the proper concentration.
An intermediate dilution was prepared with DMSO (D8418, Sigma) at 2 mM in a 96-well V-bottom microplate from the stock solution:
Mix 1 μL of the 50 mM stock library in 25 μL of DMSO.
Mix 2 μL of the 25 mM stock library in 25 μL of DMSO.
An intermediate dilution was prepared with DMSO (D8418, Sigma) at 25 mM in a 96-well V-bottom microplate from the stock solution:
Mix 2 μL of the 50 mM stock library in 2 μL of DMSO.
Serial dilutions were performed in 2 μL of DMSO 13 times to reach 0.0015 mM as follows in table III:
For both screen and determination of IC50 1 μL of each solution was added in a 1 mL Masterblock 96 wells (Greiner bio-one, 780261) containing 1 mL of DMEM medium. As a positive control, 5 μL of a 80 mM Ribavirin solution (R9644, Sigma) is added to 1 mL of DMEM. On the other hand, DMSO is used as a negative control.
[…]. Vector Borne Zoonotic Dis. 2006; 6(4)). This modified virus was used to infect cells at MOI 0.1. […].
Medium was removed after 22 h at 37° ° C. under 5% of CO2 and cells were washed as described above. 60 μL of RIPA buffer (50 mM Tris-HCl pH8, 100 mM NaCl, 1 mM MgCl2, 1% Triton X-100) was added to cells and incubated for at least 20 min before reading fluorescence signal. Pierce 660 nm Protein Assay Reagent (22660, Thermo scientific) was used to normalize fluorescence signal by protein quantity.
A first round of experiments has been performed wherein the results are expressed as inhibition percentage, which is calculated as follows, through the following steps:
1. Fluorescence intensity (FI) 509 nm/Absorbance 660 nm (A660)=A
This ratio allows considering the infection (GFP virus) to the protein amount.
2. A′=A—background noise of non-infected plate,
3. B=Fluorescence intensity (FI)/Absorbance 660 nm (A660) of infected but non treated plates,
4. C=A′/B which is then converted as the percentage of infection after treatment, compared to non-treated sample, and subsequently as the […]. For instance, a value of 100 in Table IV here below means that, after treatment, the signal attributed to GFP fluorescence is abolished, which is correlated to the absence of infection.
This value corresponds to the inhibition's percentage.
The following Table IV encompasses said C′ value for some compounds as calculated above with a mean of 2 experiments, and the corresponding standard deviation.
Some values were originally above 100. In these cases, the value has been lowered to 100. This means that some molecules also have an impact on the viability of the cells. In other words, the A value may be lower than the background noise.
Moreover, for each measure, the test was performed with Ribavirin as control. The value of the inhibition percentage was checked, giving 100%.

Assay [2] concerns RSV A2. The assay is described as follows: Screening for RSV inhibition using Viral ToxGlo assay in HEp-2 cells. It counts as cell-based. To be noted: human respiratory syncytial virus, HEp-2, 72 h. As to the method:
Protocol for Screening Antiviral Compounds for RSV Inhibition and Cytotoxicity Using Viral ToxGlo Assay
HEp-2 cells were maintained in Eagle's minimum essential medium (EMEM) with Earle's BSS adjusted to contain 2 mM L-glutamine, 10% fetal bovine serum, 100 U/ml penicillin and 100 μg/ml streptomycin. For the purposes of the screening assay they were grown to 90% confluency, trypsinized and recovered. The trypsin was neutralised with cell culture media and cells were centrifuged at 150×g for 5 minutes before discarding the supernatant and resuspending cell pellet in assay media (EMEM with Earle's BSS adjusted to contain 2 mM L-glutamine, 2% fetal bovine serum and 100 U/ml penicillin and 100 μg/ml streptomycin). The cells were seeded into white clear-bottomed cell culture plates at a density of 1.5×10^4 cells/well in 50 μl and 4×10^3 cells/well in 25 μl for 96 well plates and 384 well plates respectively. For the media/background control column assay media only was added. Cell plates were placed in a humid chamber and incubated overnight at 37° C./5% CO2. After overnight incubation cells were checked for confluency and healthy appearance.
Test articles were made up at 10× test concentration in a maximum DMSO concentration of 10% (final assay concentration maximal 1% DMSO) and added to the cell plates in volumes of 10 μl for 96 well plates and 5 μl for 384 well plates. For cell control and virus control wells the test article solvent only was added. Virus or assay media for cytotoxicity test wells and media/cell control wells was added immediately after test articles at an MOI of 0.5, 40 or 20 μl for 96 and 384 well plates respectively. Virus suspension was prepared by thawing RSV A2 frozen stocks and diluting to the required concentration of plaque forming units in assay media on ice.
Cell plates were further incubated inside a humid chamber for 72 h p.i at 37° C./5% CO2. After the incubation period cells were observed under the microscope to check for characteristic cytopathic effect in virus control wells and healthy cells in the cell control wells. After plates were adjusted to room temperature 20/40 μl Viral ToxGlo (Promega) was added to each well of the 384/96 well cell plates. Plates were incubated at room temperature, protected from light on a plate rocker for 20 minutes before measuring the luminescence on a spectrophotometer (Biotek Synergy HTX).
RSV inhibition was calculated as percentage of cytopathic effect inhibition relative to the virus control and cytotoxicity as percentage of cell survival relative to cell control wells. This allowed EC50 values to be calculated for each test article where a virus inhibition or cytotoxic dose response was identified. EC50 values ranging between 0.001 µM and 5 μM could thus be determined for compounds 1, 6, 10, 13, 28, 38, 43, 47, 48, 49, 50, 51, 52, 53, 54, 55, 56 and 57.

Assay [3] deals with DENV-2 strain 16681. The assay is described as follows: Screening for DENV-2 inhibition using Viral ToxGlo assay in A549 cells. The conditions noted are these: Dengue virus, DENV2, A549, 120 h, read-out: % DENV-2 Inhibition Mean (n = 3). It counts as cell-based, Dengue 2 virus. As to the method:
Protocol for Screening Antiviral Compounds for DENV-2 Inhibition and Cytotoxicity Using Viral ToxGlo Assay
A549 cells were maintained in Dulbecco's Modified Eagle Medium (DMEM) supplemented with 10% fetal bovine serum, 100 U/ml penicillin and 100 μg/ml streptomycin. For the purposes of the screening assay they were grown to 90% confluency, trypsinized and recovered. The trypsin was neutralised with cell culture media and cells were centrifuged at 150×g for 5 minutes before discarding the supernatant and resuspending cell pellet in assay media (DMEM supplemented with 2% fetal bovine serum and 100 U/ml penicillin and 100 μg/ml streptomycin). The cells were seeded into 96-well white clear-bottomed cell culture plates at a density of 1.0×10^4 cells/well in 50 μl. For the media/background control column assay media only was added. Cell plates were placed in a humid chamber and incubated overnight at 37° C./5% CO2. After overnight incubation cells were checked for confluency and healthy appearance.
Test compounds were prepared at a final concentration of 10 μM, in a maximum DMSO concentration of 1% (final assay concentration maximal 0.1% DMSO) and added to the cell plates in volumes of 10 μl. For cell control and virus control wells the test article solvent only was added. As a positive inhibition control, 7-Deaza-2′-C-methyladenosine was added at 100 μM in 3 wells. Virus (DENV-2 strain 16681) or assay media for cytotoxicity test wells and media/cell control wells was added immediately after test articles at an MOI of 0.5, 40 for 96 well plates respectively. Virus suspension was prepared by thawing DENV-2 frozen stocks and diluting to the required concentration of plaque forming units in assay media.
Cell plates were further incubated inside a humid chamber for 5 days p.i at 37° C./5% CO2. After the incubation period cells were observed under the microscope to check for characteristic cytopathic effect in virus control wells and healthy cells in the cell control wells. After plates were adjusted to room temperature 20 μl Viral ToxGlo (Promega) was added to each well of the 96-well cell plates. Plates were incubated at room temperature for 5 minutes before measuring the luminescence on a spectrophotometer (Envision, PerkinElmer).
DENV-2 inhibition was calculated as percentage of cytopathic effect inhibition relative to the virus control and cytotoxicity as percentage of cell survival relative to cell control wells.

In general, inhibition refers to the drop in the measured response relative to a control, in per cent. Broadly, the EC50 is the concentration giving half of the maximal effect. Consider `Cc1cc(OC(F)(F)F)ccc1Nc1ccc2cccc(Cl)c2n1` [Compound 1, 8-chloro-N-(2-methyl-4-(trifluoromethoxy)phenyl)quinolin-2-amine], for which the inhibition at 1 µM in assay [1] came to 97%. In addition, the EC50 in assay [2] was found to be 3310 nM.

For orientation: IC50 means the concentration that inhibits the measured activity by half. On to `CCCc1cc(OC(F)(F)F)ccc1Nc1ccc2cccc(Cl)c2n1` [Compound 6, 8-chloro-N-(2-propyl-4-(trifluoromethoxy)phenyl)quinolin-2-amine], for which, in assay [1], the inhibition at 1 µM was 100% and the IC50 was in the range of 1 to 200 nM. Moreover, the EC50 in assay [2] worked out at 1210 nM.

As for `Cc1ccc(Oc2ccc(Nc3ccc4ccccc4n3)cc2)cc1` [Compound 28, N-(4-(p-tolyloxy)phenyl)quinolin-2-amine], the EC50 in assay [2] worked out at 1780 nM.

Consider `Cc1cc(Oc2ccccc2F)ccc1Nc1ccc2ccccc2n1` [Compound 38, N-(4-(2-fluorophenoxy)-2-methylphenyl)quinolin-2-amine], for which, in assay [1], the inhibition at 1 µM was determined as 98% and the IC50 lay within 1 to 200 nM. Also, the EC50 in assay [2] worked out at 200 nM.

Regarding `Cc1cc(OC(C)C)c(C(C)C)cc1Nc1ccc2cccc(Cl)c2n1` [Compound 40, 8-chloro-N-(4-isopropoxy-5-isopropyl-2-methylphenyl)quinolin-2-amine], in assay [1], the IC50 fell in the range of 1 to 200 nM. The inhibition at 10 µM in assay [3] stood at 97%.

As to `Clc1cccc2ccc(Nc3ccc(OC4CCC4)cc3C3CC3)nc12` [Compound 42, 8-chloro-N-(4-cyclobutoxy-2-cyclopropylphenyl)quinolin-2-amine], in assay [1], the IC50 lay in the range of 1 to 200 nM. For the same molecule, the inhibition at 10 µM in assay [3] is 84%.

In assay [1], `Clc1cccc2ccc(Nc3ccc(OC4CCCC4)cc3C3CC3)nc12` [Compound 44, 8-chloro-N-(4-(cyclopentyloxy)-2-cyclopropylphenyl)quinolin-2-amine] registered an IC50 of 1 to 200 nM. Besides, the inhibition at 10 µM in assay [3] came out at 94%.

For `Fc1ccccc1Oc1ccc(Nc2ccc3ccccc3n2)c(C2CC2)c1` [Compound 46, N-(2-cyclopropyl-4-(2-fluorophenoxy)phenyl)quinolin-2-amine], in assay [1], the 50% inhibitory concentration (IC50) lay in the range of 1 to 200 nM. The inhibition at 10 µM in assay [3] worked out at 104%.

As for `Cc1cc(OC(C)C)c(C2CC2)cc1Nc1ccc2cccc(Cl)c2n1` [Compound 48, 8-chloro-N-(5-cyclopropyl-4-isopropoxy-2-methylphenyl)quinolin-2-amine], in assay [2], the EC50 is 360 nM.

For the molecule `Cc1c(Nc2ccc3cccc(Cl)c3n2)cccc1OC(C)C` [Compound 49, 8-chloro-N-(3-isopropoxy-2-methylphenyl)quinolin-2-amine], the EC50 in assay [2] turned out to be 513 nM.

As for `Cc1c(Nc2ccc3cccc(Cl)c3n2)cccc1OCc1ccccc1` [Compound 50, N-(3-(benzyloxy)-2-methylphenyl)-8-chloroquinolin-2-amine], the concentration for a half-maximal effect (EC50) in assay [2] turned out to be 283 nM.

Regarding `COc1ccc(Oc2ccc(Nc3ccc4ccccc4n3)c(C)c2)cc1` [Compound 51, N-(4-(4-methoxyphenoxy)-2-methylphenyl)quinolin-2-amine], the EC50 in assay [2] amounted to 412 nM.

For `COc1ccc(Oc2ccc(Nc3ccc4ccccc4n3)c(C3CC3)c2)c(F)c1` [Compound 52, N-(2-cyclopropyl-4-(2-fluoro-4-methoxyphenoxy)phenyl)quinolin-2-amine], in assay [2], the EC50 was found to be 344 nM.

Take `Cc1cc(Oc2ccc(O)cc2F)ccc1Nc1ccc2ccccc2n1` [Compound 53, 3-fluoro-4-(3-methyl-4-(quinolin-2-ylamino)phenoxy)phenol]: in assay [2], the EC50 was 196 nM.

Take `Cc1c(Nc2ccc3cccc(Cl)c3n2)cccc1Oc1ccccc1` [Compound 55, 8-chloro-N-(2-methyl-3-phenoxyphenyl)quinolin-2-amine]: the EC50 in assay [2] stood at 192 nM.

Turning to `Cc1cc(Oc2ccc3ccccc3c2)ccc1Nc1ccc2cccc(Cl)c2n1` [Compound 57, 8-chloro-N-(2-methyl-4-(naphthalen-2-yloxy)phenyl)quinolin-2-amine], the EC50 in assay [2] is 473 nM.
